Key:
[1] = tested on: AMPK/mTORC1 signaling in MCF-7, MDA-MB-231, and MDA-MB-436 cells; assay: Western blot of AMPK/mTORC1 signaling; type: cell-based, human; details: 24 h
Experimental: Cells were lysed in radioimmunoprecipitation assay buffer containing 50 mM Tris, pH 8.0, 150 mM NaCl, 0.1% SDS, 0.5% sodium deoxycholate, 1% NP-40, 1 mM DTT, 1 mM NaF, 1 mM sodium orthovanadate, 1 mM phenylmethylsulfonyl fluoride (PMSF; Sigma-Aldrich; Merck KGaA), and 1% protease inhibitors cocktail (EMD Millipore, Billerica, MA, USA). Protein concentration was determined using the Bradford method. Equal amounts of sample (25 µg) were separated by SDS-PAGE (8–12% gels). Electrophoresed proteins were then transferred onto polyvinylidene fluoride membranes (EMD Millipore, Billerica, MA, USA). The membranes were blocked with 5% skimmed milk in Tris-buffered saline at room temperature for 1 h. Following blocking, membranes were incubated overnight at 4°C with primary antibodies and then rinsed with Tris-buffered saline with Tween 20. The following primary antibodies were used: anti-Glut3 (1:500; catalog no. sc-74399) (Santa Cruz Biotechnology, Inc., Dallas, TX, USA); anti-LC3 (1:1000; catalog no. 12741), anti-AMPKα (1:1000; catalog no. 2532), anti-phospho-AMPKα (Thr172) (1:1000; catalog no. 2535), anti-phospho-AMPKβ1 (Ser108) (1:1000; catalog no. 4181), anti-AMPKγ1 (1:1000; catalog no. 4187), anti-mTOR (1:1000; catalog no. 2983), anti-phospho-mTOR (Ser2448) (1:1000; catalog no. 5536), anti-P70S6K (1:1000; catalog no. 9202), anti-phospho-P70S6K (Thr389) (1:1000; catalog no. 92775), anti-4E-BP1 (1:1000; catalog no. 9234), anti-phospho-4E-BP1 (Thr37/46) (1:1000; catalog no. 2855), anti-ACC (1:1000; catalog no. 3676), anti-phospho-ACC ([…]) (1:1000; catalog no. 11818), anti-Glut1 (1:1000; catalog no. 12939), anti-Glut4 (1:1000; catalog no. 2213) (All Cell Signaling Technology, Inc., Danvers, MA, USA), and anti-GAPDH (1:5000; catalog no. M20006; Abmart, Shanghai, China). Membranes were then washed, and incubated with horseradish peroxidase-conjugated secondary antibody (1:10000; E030120-01 and E030110-01; EarthOx, LLC, San Francisco, CA, USA) for 1.5 h at room temperature. The protein bands were visualized using SuperSignal® West Pico PLUS Chemiluminescent substrate (catalog no. 34579; Pierce; Thermo Fisher Scientific, Inc., Rockford, IL, USA) ([Zhang et al., 2018]).
(§1) Figure 3 Eth induces autophagy through the AMPK/mTORC1 signaling. (A): MCF-7, MDA-MB-231, or MDA-MB-436 cells were treated with increasing concentrations of Eth for 24 h. Western blot was performed using antibodies indicated. […] (D): MDA-MB-231 or MDA-MB-436 cells transfected with pQCXIP-GFP-LC3 plasmid were treated with Eth (2.0 µM) and/or CC (25 µM) for 24 h, and assessed by immunoﬂuorescence analyses. […] (G): MDA-MB-231 or MDA-MB-436 cells transfected with pQCXIP-GFP-LC3 plasmid were treated with Eth (1.0 µM or 1.6 µM) and/or Met (10 mM) for 24 h, and assessed by immunoﬂuorescence analyses. […]

[2] = tested on: LC3-II and Beclin-1 in MCF-7, MDA-MB-231, and MDA-MB-436 cells; assay: Western blot of autophagy markers; type: cell-based, human; details: Eth 2.4, 2.0 or 2.0 µM and 3-MA 1 mM, 24 h
Experimental: Cells were lysed in radioimmunoprecipitation assay buffer containing 50 mM Tris, pH 8.0, 150 mM NaCl, 0.1% SDS, 0.5% sodium deoxycholate, 1% NP-40, 1 mM DTT, 1 mM NaF, 1 mM sodium orthovanadate, 1 mM phenylmethylsulfonyl fluoride (PMSF; Sigma-Aldrich; Merck KGaA), and 1% protease inhibitors cocktail (EMD Millipore, Billerica, MA, USA). Protein concentration was determined using the Bradford method. Equal amounts of sample (25 µg) were separated by SDS-PAGE (8–12% gels). Electrophoresed proteins were then transferred onto polyvinylidene fluoride membranes (EMD Millipore, Billerica, MA, USA). The membranes were blocked with 5% skimmed milk in Tris-buffered saline at room temperature for 1 h. Following blocking, membranes were incubated overnight at 4°C with primary antibodies and then rinsed with Tris-buffered saline with Tween 20. […]
(§2) Figure 2 Eth induces autophagy in BC cells. […] (C): MCF-7, MDA-MB-231, or MDA-MB-436 cells transfected with pQCXIP-GFP-LC3 plasmid were treated with increasing concentrations of Eth for 24 h, and assessed by immunoﬂuorescence analyses. […] (D): MDA-MB-231 or MDA-MB-436 cells transfected with pQCXIP-GFP-LC3 plasmid were treated with Eth (2.0 µM) and/or 3-MA (1 mM) for 24 h, and assessed by immunoﬂuorescence analyses. […] (F): MCF-7, MDA-MB-231, or MDA-MB-436 cells were treated with Eth (3.5 µM, 3.0 µM, or 3.0 µM) and/or 3-MA (1 mM) for 24 h and analyzed by MTT assay. […]

[3] = tested on: LC3 redistribution to autophagosomes in BC cells; assay: GFP-LC3 autophagy assay (confocal microscopy); type: cell-based, human; details: 24 h
Description: The cells were transfected with pQCXIP-GFP-LC3 plasmid using the Lipofectamine 3000 (Invitrogen; Thermo Fisher Scientific, Inc.) according to the recommended protocol by the manufacturer and then fixed in 4% paraformaldehyde. The percentage of cells with fluorescent dots representing GFP-LC3 translocation was counted. For visualization of cell nucleus, DAPI was used. Sections were observed using an Olympus laser scanning confocal microscope with imaging software (Olympus Fluoview FV-1000, Tokyo, Japan).
Figure 2 Eth induces autophagy in BC cells. (A): MCF-7, MDA-MB-231, or MDA-MB-436 cells were treated with increasing concentrations of Eth for 24 h. Western blot was performed using antibodies indicated. GAPDH was used as the loading control. (B): MCF-7 (MDA-MB-231 or MDA-MB-436) cells were treated with 2.4 µM (2.0 µM or 2.0 µM) Eth for the indicated times, and cell lysates were subjected to western blot assay. (C): MCF-7, MDA-MB-231, or MDA-MB-436 cells transfected with pQCXIP-GFP-LC3 plasmid were treated with increasing concentrations of Eth for 24 h, and assessed by immunoﬂuorescence analyses. Scale bar = 20 µm. (D): MDA-MB-231 or MDA-MB-436 cells transfected with pQCXIP-GFP-LC3 plasmid were treated with Eth (2.0 µM) and/or 3-MA (1 mM) for 24 h, and assessed by immunoﬂuorescence analyses. Scale bar = 20 µm. […] (F): MCF-7, MDA-MB-231, or MDA-MB-436 cells were treated with Eth (3.5 µM, 3.0 µM, or 3.0 µM) and/or 3-MA (1 mM) for 24 h and analyzed by MTT assay. (G): MCF-7, MDA-MB-231, or MDA-MB-436 cells were treated with Eth (2.4 µM, 2.0 µM, or 2.0 µM) and/or 3-MA (1 mM) for 24 h, and western blot was performed using antibodies indicated. *P < 0.05.
as §1, with “signaling.” for “signaling. (A): MCF-7, MDA-MB-231, or MDA-MB-436 cells were treated with increasing concentrations of Eth for 24 h. Western blot was performed using antibodies indicated.”

[4] = tested on: MCF-7, MDA-MB-231, or MDA-MB-436 cells; assay: MTT assay, Eth and/or 3-MA; type: cell-based, human; details: Eth 3.5, 3.0 or 3.0 µM and 3-MA 1 mM, 24 h
Experimental: (§3) Cells were seeded into 96-well plate and pre-cultured for 24 h, then treated with Eth for 24. Cell cytotoxicity was determined by MTT assay. The absorbance was measured at 490 nm by automated microplated reader (BioTek Instruments, Inc., Winooski, VT, USA), and the cell death rate was calculated as followed: inhibition rate (%) = (average A490 of the control group − average A490 of the experimental group)/(average A490 of the control group − average A490 of the blank group) × 100%. Cell viability was estimated by trypan blue dye exclusion.
as §2, with “cells. (A): MCF-7, MDA-MB-231, or MDA-MB-436 cells were treated with increasing concentrations of Eth for 24 h. Western blot was performed using antibodies indicated. GAPDH was used as the loading control.” for “cells.”

MCF-7 = assay: MTT cytotoxicity assay; type: cell-based; details: Homo sapiens, MCF7, MCF-7, 24 h
Description: (§4) Human BC cell lines MCF-7, MDA-MB-231, DMA-MB-436, SK-BR3, MDA-MB-468, MDA-MB-453, and MDA-MB-435S and non-tumorigenic MCF-10A human mammary epithelial cells were obtained from American Type Culture Collection (ATCC; Manassas, VA, USA). MCF-7, SK-BR3, MDA-MB-231, and MDA-MB-436 cells were maintained in Dulbecco’s modified Eagle’s medium (DMEM; high glucose; Gibco; Thermo Fisher Scientific, Inc., Waltham, MA, USA) supplemented with 10% fetal bovine serum (FBS; HyClone; Logan, UT, USA) and antibiotics and incubated in a humidified atmosphere with 5% CO2 at 37°C. MDA-MB-468, MDA-MB-453, and MDA-MB-435S cells were maintained in Leibovitz’s L-15 (Gibco) supplemented with 10% FBS and antibiotics and incubated in a humidified atmosphere without CO2 at 37°C. MCF-10A cells were maintained in DMEM/F12 medium containing 5% horse serum (HS), insulin ([…]), epidermal growth factor (EGF, 20 ng/mL), choleratoxin ([…]), hydrocortisone ([…]), penicillin (50 U/mL), and streptomycin (50 U/mL), and incubated in a humidified atmosphere with CO2 at 37°C.
as §3

MDA-MB-231 = assay: MTT cytotoxicity assay; type: cell-based; details: Homo sapiens, MDA-MB-231, 24 h
Description: as §4, §3

MDA-MB-436 = assay: MTT cytotoxicity assay; type: cell-based; details: Homo sapiens, MDA-MB-436, 24 h
Description: as §4, §3

AMPKα = assay: Streptavidin agarose affinity assay; type: binding, human; details: cells treated with 4 μM Bio-Eth for 12 h
Experimental: Cell pellets were lysed and the supernatant collection was incubated with indicated antibodies overnight at 4°C, after which protein A/G Plus beads (Santa Cruz Biotechnology) were added and incubated at 4°C for 4 h. The beads were washed 4 times in NETN buffer (1% NP-40, 2 mM EDTA, 40 mM Tris-HCl, 137 mM NaCl, pH 7.4), resuspended in SDS-PAGE loading buffer and boiled for 5 min. For streptavidin agarose affinity assay, cells upon Bio-Eth were lysed; the lysates were incubated with streptavidin agarose, washed and boiled in SDS-PAGE loading buffer. […] Western blot assays were performed.
Figure 4 Eth is a direct activator of AMPK. (A): MCF-7, MDA-MB-231, or MDA-MB-436 cells were treated with increasing concentrations of Eth for 24 h, and AMPK activity assay was performed. (B): The binding mode of Eth docked into AMPK. (C): The binding mode of Eth docked into AMPK. α subunit is green, β subunit is cyan, γ subunit is magenta and Eth is gold. (D): Details of the binding site of Eth in the ADaM site of AMPK. The main residues involved in drug interactions are shown as labeled green sticks. α subunit is green, β subunit is cyan. The pSER-108 was shown in stick and colored by gold. (E) The interaction pattern of Eth with the residues. […] (H): Viability of MCF-7, MDA-MB-231 or MDA-MB-436 cells exposed to Biotin-Eth as determined by MTT assay. […]

CN(C)C(=N)N=C(N)N [metformin, reference compound]
effect of metformin co-treatment on Eth action on mTORC1 phosphorylation and autophagy ([1]; Eth 1.6, 1.0 or 1.6 µM and Met 10 mM): enhanced the effect of Eth on the phosphorylation of mTORC1 and autophagy

Cn1cnc(=N)c2[nH]cnc21 [3-MA]
effect of 3-MA on upregulation of LC-3II and Beclin1 by Eth [2]: antagonized the upregulation of autophagy-related proteins LC-3II and Beclin1
effect of 3-MA on induction of autophagy by Eth ([3]; Eth 2.0 µM and 3-MA 1 mM): antagonize the induction of autophagy by Eth
effect of 3-MA on cell proliferation inhibited by Eth [4]: significantly reversed the cell proliferation inhibited by Eth

CN1c2c(ccc3cc4c(cc23)OCO4)-c2ccc3c(c2C1OC(=O)CCCCC1SCC2NC(=O)NC21)OCO3 (stereo not shown) [Bio-Eth]
IC50 (MCF-7): 3.78 µM
IC50 (MDA-MB-231): 3.74 µM
IC50 (MDA-MB-436): 3.71 µM
pull-down of AMPKα by streptavidin agarose (AMPKα): AMPKα was pulled down by streptavidin agarose

c1cc(-c2cnn3cc(-c4ccc(OCCN5CCCCC5)cc4)cnc23)ccn1 [CC, reference compound]
effect of CC on LC-3II expression and autophagic vacuoles in Eth-treated cells ([3]; Eth 2.0 µM and CC 25 µM): reversed the increased LC-3II expression and number of autophagic vacuoles
effect of CC on Eth-induced reduction in mTORC1 phosphorylation ([1]; Eth 2.4, 2.0 or 2.0 µM and CC 25 µM): reversed the reduction in phosphorylation

Reference: paper PMC6960228, “Ethoxysanguinarine, a Novel Direct Activator of AMP-Activated Protein Kinase, Induces Autophagy and Exhibits Therapeutic Potential in Breast Cancer Cells” (Frontiers in Pharmacology, 2020)
